According to PubChem BioAssay AID449764 (Southern Research Specialized Biocontainment Screening …, 2010):

Tested on: Mycobacterium tuberculosis H37Rv growth inhibition, no glycerol
Assay: Confirmatory growth inhibition assay, Mycobacterium tuberculosis H37Rv, absence of glycerol (AID 449764);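 also: growth read after 7 days of incubation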
Settings: for IC90: measured here: IC90 growth inhibition

| SMILES | IC50 | IC90 |
| --- | --- | --- |
| CCc1cccc2c(=O)c(C(=O)N3CCOCC3)c[nH]c12 | 15.3 µM | 22.9 µM |
| CCOC(=O)C1CCCc2c1[nH]c1c(C(N)=O)cccc21 (configuration not stated) | 8.59 µM | 17.3 µM |
| COc1ccc(C[C@H](N)C(=O)N[C@H]2[C@@H](O)[C@H](n3cnc4c(N(C)C)ncnc43)O[C@@H]2CO)cc1 | 3.95 µM | 5.82 µM |
| COc1ccc(CCNc2nc(N3CCCCC3)nc(N3CCCCC3)n2)cc1OC | 18 µM | 23.3 µM |
| CCO[C@H]1OC(C(=O)NCc2nc3ccccc3[nH]2)=C[C@@H](c2csc3ccccc23)[C@@H]1CCCO | 36.5 µM | 49.2 µM |
| Nc1c(-c2ccccn2)cnn1-c1nc(-c2ccc(F)cc2)cs1 | 59.7 µM | > 100 µM |
| CC(=O)c1sc(NC(=O)c2cc(=O)c3ccccc3o2)nc1C | 18.4 µM | > 100 µM |
| Cc1ccnc(NC(=O)COc2ccc3c(c2)CCC3)c1 | 85.7 µM | > 100 µM |
| Cc1csc(NC(=S)Nc2cccc(Cl)c2)n1 | 4.42 µM | 6.91 µM |
| O=C(c1cc2cc(Cl)ccc2[nH]1)N1CCN(Cc2ccc3c(c2)OCO3)CC1 | 24.2 µM | > 25 µM |
| CCOC(=O)c1[nH]c2ccc(F)cc2c1NC(=O)CN1CCN(C/C=C/c2ccccc2)CC1 | 28.4 µM | 42.8 µM |
| CN1CCN(C2Cc3ccccc3Sc3cc(C(F)(F)F)ccc32)CC1 (configuration not stated) | 14 µM | 17.4 µM |
| COC(=O)CN1C(c2ccc(Cl)cc2)=Nc2ccc(Cl)cc2C1c1ccccc1 (configuration not stated) | 23 µM | 24.8 µM |
| COc1ccc(N/C=C/C(=O)c2sc(-c3ccccc3)nc2C)cc1 | 79.3 µM | > 100 µM |
| CC(=O)c1c(C)n(C)c2ccc(OC(=O)c3ccc([N+](=O)[O-])cc3)cc12 | 19.8 µM | > 100 µM |
| Cc1nn(Cc2ccccc2)c(C)c1NC(=O)c1cc2nc(-c3ccco3)cc(C(F)(F)F)n2n1 | 45.8 µM | 49.6 µM |
| C=CCn1c(O)c(N=Nc2ccccc2O)c2ccccc21 | 16.4 µM | 22.4 µM |
| C#CCOCCOCCOCCNc1nc(N2CCN(C(=O)CCCCCCCCCCNC(=O)[C@H](CCCCN)n3cc(CCCC(=O)O)nn3)CC2)nc(N2CCN(C(=O)CCCCCCCCCCNC(=O)[C@H](CCCN=C(N)N)n3cc(C[C@@H](C)CC)nn3)CC2)n1 | 6.73 µM | 9.93 µM |
| C[C@@H]1CN([C@H](C)CO)C(=O)c2cc(NC(=O)Nc3ccc(C(F)(F)F)cc3)ccc2O[C@H]1CN(C)S(=O)(=O)c1cccs1 | 21.7 µM | 24.1 µM |
| O=C(COC(=O)C1=COCCO1)Nc1cccc(Oc2ccccc2)c1 | 9.49 µM | 37.2 µM |
| C/C(CCc1ccc2c(c1)OCO2)=N\NC(=S)NC(C)C | 98.4 µM | > 100 µM |
| CCOC(=O)C1(CCOc2ccccc2)CCN(Cc2cccc(-n3cccn3)c2)CC1 | 28.1 µM | 34.5 µM |

| SMILES | IC50 | IC90 |
| --- | --- | --- |
| CCc1ccc(-c2cc(C)no2)cc1S(=O)(=O)NCCCN1CCN(c2ccccc2)CC1 | 39 µM | 47.2 µM |
| CSc1cccc(CNC(=O)C2CCC(=O)N(Cc3cccc(C(F)(F)F)c3)C2)c1 (configuration not stated) | 36.9 µM | 41.8 µM |
| Nc1ccccc1C#CC(=O)c1ccccc1 | 4.11 µM | 21.7 µM |
| COc1ccc(-c2cc3nc(CCl)[nH]c(=O)c3s2)cc1 | 5.94 µM | 6.45 µM |
| Cc1ccc(OC(=O)CCN2C(=O)c3ccccc3C2=O)cc1C | 85.1 µM | > 100 µM |
| CCN(CC)c1ccc2nc3ccccc3[n+](CC)c2c1 | 3.23 µM | 5.55 µM |
| c1ccc2nc(-c3ccc(-n4ccnc4)cc3)ccc2c1 | 31 µM | 42.5 µM |
| CCCc1cc(C(N)=S)ccn1 | 17.1 µM | > 100 µM |
| CCc1cc(/C(Cc2ccccn2)=N\Nc2ccccc2)c(O)cc1O | 85.7 µM | 94.6 µM |
| CCOC(=O)c1nnc(-c2ccccc2)nc1Sc1ccccc1Cl | 90.6 µM | > 100 µM |
| C=C(C)C1CC=C(CN2CCN(Cc3ccccc3)CC2)CC1 (configuration not stated) | 17.8 µM | 22 µM |
| COC(=O)c1ccc(C(=O)OC)c(NC(=O)CSc2cccc[n+]2[O-])c1 | 5.72 µM | 6.25 µM |
| COC(=O)c1cc(Sc2cccc(Cl)c2Cl)ccn1 | 29 µM | 40.5 µM |
| Cc1ccc(Cn2nnnc2CN2CCC(c3nc4ccc(Cl)cc4[nH]3)CC2)cc1 | 31 µM | 40.8 µM |
| N#C/C(=C\c1ccc(-c2ccc(Br)cc2)o1)C(=O)NCCc1c[nH]c2ccccc12 | 97.5 µM | > 100 µM |
| N[C@@H](CCl)C(=O)O | 35.4 µM | 55.2 µM |
| ClCc1nc2ccccc2c2ccccc12 | 20.6 µM | 28.4 µM |
| Cc1ccc(C2=NN(C)c3nc4ccccc4n3C2)cc1 | 59.3 µM | > 100 µM |
| Cc1ccc(S(=O)(=O)N2CCC(C(=O)OCc3ccccc3)CC2)cc1C | 46.5 µM | 52.2 µM |
| CCOC(=O)CNC(=O)CNC(=O)c1nn(-c2ccc(OC)c(Cl)c2)c(=O)c2ccccc12 | 38 µM | > 100 µM |
| CCCCCCCCCCOC(=O)Cn1c(COc2ccc(Cl)cc2)[n+](C)c2ccccc21 | 15.8 µM | 17.5 µM |
| c1ccc2c(c1)CCN(c1nc3cc4c(cc3s1)OCCO4)C2 | 35 µM | 55 µM |

| SMILES | IC50 | IC90 |
| --- | --- | --- |
| CC(C)Oc1ccc(-c2nc(NCC3CCCO3)c3ccccc3n2)cc1 (configuration not stated) | 62.3 µM | 98.3 µM |
| O=C1C(Br)=Cc2cccc3cccc1c23 | < 0.2 µM | < 0.2 µM |
| Fc1nc(F)c(F)c(NCCCNc2c(F)c(F)nc(F)c2F)c1F | – | > 100 µM |
| Cc1ccc(NC(=O)c2sccc2-n2cccc2)c(C)c1 | – | > 100 µM |
| Oc1ccccc1NCC(O)Cn1ccc2ccccc21 (configuration not stated) | 11.5 µM | 12.3 µM |
| NC(N)=N/N=C/c1ccc(N(c2ccccc2)c2ccccc2)cc1 | 9.86 µM | 12.8 µM |
| CCCCC(=O)OCC(=O)N1N=C(c2c[nH]c3ccccc23)C(O)C1c1ccc(OC)cc1 (configuration not stated) | 22 µM | 25.1 µM |
| Cc1ccc(C)c(NC(CC(=O)c2ccccc2)C(=O)OCC(=O)c2cccs2)c1 (configuration not stated) | 11.1 µM | 11.7 µM |
| Cc1ccc(/C=C2\C(=O)Nc3ccccc32)o1 | 4.9 µM | 6.56 µM |
| Cc1cc(C)n(-c2cc(C(C)(C)C)nc3c(-c4ccccc4)cnn23)n1 | 36.1 µM | 47.3 µM |
| CCN(CC)CCN(C(=O)c1ccc(S(=O)(=O)N2CCCC2)cc1)c1nc2cc(C)cc(C)c2s1 | 11.7 µM | 13.5 µM |
| C=CCOc1ccc2c(c1)C(=NO)c1cc(OCC=C)ccc1-2 | 28 µM | > 100 µM |
| Oc1ccccc1N=Cc1ccc[nH]1 | 4.6 µM | 6.04 µM |
| Cc1ccc(OC(=O)c2oc3ccc(F)cc3c2C)c(C)c1 | 12 µM | 13.9 µM |
| CC(c1nc2ccccc2c(=O)[nH]1)N(C)CCOc1ccc(Cl)cc1 (configuration not stated) | 40.7 µM | 55.5 µM |
| CSc1nsc(SCC(=O)N2CCCCC2)n1 | 8.65 µM | 12.9 µM |
| C=C(C)C1Cc2c(C)nn(-c3nc(C)cc(C)n3)c2C1 (configuration not stated) | 8.78 µM | 22.1 µM |
| CN(C)C/C=C/C(=O)Nc1cccc(-c2c[nH]c3ncnc(Oc4ccc(NC(=O)CC(=O)Nc5ccc(F)cc5)cc4F)c23)c1 | 12.3 µM | 14 µM |
| On1onc2c3cc(-c4ccccc4)nc3ccc21 | < 0.2 µM | < 0.2 µM |
| COc1cc(NC(C)CCCN)c2ncccc2c1 (configuration not stated) | 9.02 µM | 14.3 µM |
| Cc1cc(C(=O)N[C@H](c2ccccc2)[C@@]2(C)C[C@@H]2[C@@H](C)C(=O)Nc2ccc3ccccc3c2)n(C)n1 | 39.1 µM | 53.9 µM |
| CCOC(=O)CSc1nnc(-c2ccc(S(=O)(=O)NCc3cccs3)cc2)o1 | 5.1 µM | 7.29 µM |

| SMILES | IC50 | IC90 |
| --- | --- | --- |
| CC(C)(C)NC(=O)C(c1c[nH]c2ccccc12)N(C(=O)Cn1nnc(-c2ccc(F)cc2)n1)c1cccc(O)c1 (configuration not stated) | 34.7 µM | 45.6 µM |
| Cc1cc(C)cc(NC(=O)c2ccc(Cn3nc(C)c(Cl)c3C)o2)c1 | 34.8 µM | 48.3 µM |
| Cc1cccc(OCc2n(CC(=O)OC3CC(C)CCC3C(C)C)c3ccccc3[n+]2C)c1 (configuration not stated) | 8.63 µM | 10.4 µM |
| CCOC(=O)c1ccc(N=c2sc(C(=O)OC)cc(=O)n2CCCN2CCOCC2)cc1 | 9.02 µM | 16.9 µM |
| CCCCCCCCn1c2c(c(=N)c3c1CCC3)CCCC2 | 22.6 µM | 25.8 µM |
| Cc1ccc(/C(N)=N/OC(=O)N2c3ccccc3Sc3ccccc32)cc1 | 92.7 µM | > 100 µM |
| COc1cccc2c1C(CO)N1C(C#N)C3CC(C(=O)O)C(C1C2)N3C (configuration not stated) | 2.71 µM | 3 µM |
| O=C(OCC#CCSc1nnc(-c2cccc3ccccc23)o1)c1cccs1 | 47.3 µM | > 100 µM |
| CCOC(=O)C(C)Oc1ccc(NC(=O)C(Cl)(Cl)Cl)cc1 (configuration not stated) | 3.99 µM | 5.86 µM |
| Cc1ccc(Cl)cc1N1CCN(CC(=O)NC2CCCc3ccccc32)CC1 (configuration not stated) | 35.6 µM | 51.1 µM |
| CC(C)Oc1ccc(C(=O)N/N=C/c2ccc(-c3ccc(S(=O)(=O)Nc4ncccn4)cc3)o2)cc1 | 55.8 µM | 89.7 µM |
| NC1=NC[C@H](Cc2ccc(O)cc2)N1CCc1cccc2ccccc12 | 40.9 µM | 45.6 µM |
| CCN1/C(=C/C=C/c2oc3ccc(-c4ccccc4)cc3[n+]2CC)Oc2ccc(-c3ccccc3)cc21 | 5.81 µM | 6.37 µM |
| CCNc1nc(NCC)nc(N/N=C/c2ccc([N+](=O)[O-])o2)n1 | 1.3 µM | 1.7 µM |
| CCOC(=O)C1CCCN(c2ncnc3c2cnn3-c2ccc(OC)cc2)C1 (configuration not stated) | 5.82 µM | 10.3 µM |
| CCCCCCCNC1=CC(=O)CC(c2ccccc2)C1 (configuration not stated) | 39.7 µM | 61.3 µM |
| CCOC(=O)c1cnc(SC2CCc3ccccc3C2=O)nc1N (configuration not stated) | 87.1 µM | 96.5 µM |
| C#CCOC(=O)/C(=C/C=C/c1ccccc1)NC(=O)c1ccccc1 | 27.1 µM | 56.6 µM |
| C[C@]12CC[C@@H]3c4ccc(O)cc4CC[C@H]3[C@@H]1CC[C@@H]2OC(=O)CCC1CCCC1 | 14.5 µM | 35.3 µM |
| COc1ccc2nc(NC(=O)C3CCCN(S(=O)(=O)c4cccs4)C3)sc2c1 (configuration not stated) | 14.9 µM | 24.2 µM |
| CC(C)(C)OC(=O)NNc1c2ccccc2nc2ccccc12 | 22.6 µM | 25.2 µM |
